Assay results from patent publication US7452997B2 (priority 2004, dated 2008).
Like-named read-outs stand apart in the source and are kept apart here.

Experiments:
[1] = molecular target: T1, human CB1 receptor (Homo sapiens, UniProt P21554); test: biochemical; format: binding
T1 construct: expressed in transfected cells; host or cells: SK-N-MC cells, stably transfected with pcDNA3 CB-1 (human); semi-purified membrane pellet
Summary of the method: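 Membranes from SK-N-MC cells stably expressing human CB1, incubated 90 minutes at 30° C in Tris-HCl buffer with MgCl2, EDTA and fatty acid free BSA, pH 7.5. Bound counts collected by filtration and scintillation counting; IC50 from linear regression over varying compound concentrations.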

[2] = molecular target: human CB2 receptor (Homo sapiens, UniProt P34972); test: Binding assay, cannabinoid CB2 receptor ([3H]-CP-55,940 displacement); settings: SK-N-MC cell membranes, radioligand CP-55,940 0.2 nM
Chain of human CB2 receptor (P34972 whole entry): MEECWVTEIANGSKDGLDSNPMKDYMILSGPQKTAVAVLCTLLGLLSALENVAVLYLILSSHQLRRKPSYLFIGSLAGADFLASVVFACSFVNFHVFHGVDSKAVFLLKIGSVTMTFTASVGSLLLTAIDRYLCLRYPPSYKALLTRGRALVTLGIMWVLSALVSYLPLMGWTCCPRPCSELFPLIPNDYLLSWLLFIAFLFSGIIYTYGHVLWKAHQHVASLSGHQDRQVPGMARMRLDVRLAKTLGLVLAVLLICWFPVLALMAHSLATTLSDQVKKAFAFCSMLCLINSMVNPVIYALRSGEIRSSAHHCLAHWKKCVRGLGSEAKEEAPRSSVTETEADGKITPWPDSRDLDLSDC
Summary of the method: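 Membranes from SK-N-MC cells stably expressing human CB2, incubated with test compound and 0.2 nM [3H]-CP-55,940 for 90 min at 30 °C in Tris buffer pH 7.5 with fatty-acid-free BSA. Nonspecific binding defined with 10 uM WIN 55,212; filtration and scintillation counting, IC50 by linear regression.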

[3] = Cannabinoid CB2 Receptor Binding IC50, human CB2 receptor

T1 sequence (P21554 whole entry): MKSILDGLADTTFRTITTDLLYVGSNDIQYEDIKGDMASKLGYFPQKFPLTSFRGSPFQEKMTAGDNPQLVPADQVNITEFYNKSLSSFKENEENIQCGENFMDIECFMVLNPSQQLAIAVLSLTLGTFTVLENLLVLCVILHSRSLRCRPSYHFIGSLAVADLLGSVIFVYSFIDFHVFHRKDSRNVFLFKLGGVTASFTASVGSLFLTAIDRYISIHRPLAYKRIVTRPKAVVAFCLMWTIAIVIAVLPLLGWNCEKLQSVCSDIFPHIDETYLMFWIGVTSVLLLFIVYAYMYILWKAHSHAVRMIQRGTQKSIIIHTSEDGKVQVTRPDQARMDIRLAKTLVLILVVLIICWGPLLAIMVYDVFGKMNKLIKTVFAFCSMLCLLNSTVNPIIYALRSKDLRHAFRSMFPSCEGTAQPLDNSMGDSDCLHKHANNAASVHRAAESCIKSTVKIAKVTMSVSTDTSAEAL

SMILES | IC50 [1] [nM] | IC50 [2, 3] [nM] | IC50 ([1]; human CB1 receptor, SK-N-MC cell membranes, radioligand CP-55,940 0.2 nM, read-out: Cannabinoid CB1 Receptor Binding IC50) [nM] | IC50 ([2]; human CB2 receptor, read-out: Cannabinoid CB2 Receptor Binding IC50) [nM]
CC(NC(=O)c1nn(C2CCCCC2)c2c1CC(=O)CC2)C12CC3CC(CC(C3)C1)C2 (stereo not shown) [compound 97] | 9700 | 30 |  | 
CC(C)(C)C1CCc2c(c(C(=O)NC3C4(C)CCC(C4)C3(C)C)nn2C2CCCCC2)C1 (stereo not shown) [compound 99] | 960 | 250 |  | 
CS(=O)(=O)NC1CCc2c(c(C(=O)NC3C4CC5CC(C4)CC3C5)nn2C2CCCCC2)C1 (stereo not shown) [compound 104] | 17100 | 200 |  | 
CCOC[C@H]1C2CCC(C2)[C@H]1NC(=O)c1nn(C2CCCCC2)c2c1CCCC2 (stereo partly shown) [compound 107] | 910 | 1400 |  | 
CCOC(=O)C1CC=CCC1NC(=O)c1nn(Cc2ccccc2)c2c1CCCC2 (stereo not shown) [compound 119] | 6 | 10 |  | 
CCOC(=O)C1CC=CCC1NC(=O)c1nn(C2CCCCC2)c2c1CCCC2OC (stereo not shown) [compound 120] | 2460 | 875 |  | 
CCOC(=O)[C@H]1C2CCC(C2)[C@H]1NC(=O)c1nn(CC2CCCCC2)c2c1CCCC2 (stereo partly shown) [compound 124] | 7 | 16 |  | 
Cc1ccc(Cn2nc(C(=O)NC3C4(C)CCC(C4)C3(C)C)c3c2CCCC3)cc1 (stereo not shown) [compound 125] | 26 | 2.2 |  | 
CCOC(=O)C1C2CCC(C2)C1NC(=O)c1nn(Cc2ccc(C)cc2)c2c1CCCC2 (stereo not shown) [compound 126] | 597 | 593 |  | 
O=C(NC1CCCCCCC1)c1nn(Cc2ccccc2)c2c1CCCC2 [compound 127] | 9.9 | 3.9 |  | 
CC12CCC(C1)C(C)(C)C2NC(=O)c1nn(-c2ccc(Cl)cc2Cl)c2c1CCCC2 (stereo not shown) [compound 129] | 5.7 | 1.7 |  | 
CCOC(=O)[C@H]1C2CCC(C2)[C@H]1NC(=O)c1nn(-c2ccc(Cl)cc2Cl)c2c1CCCC2 (stereo partly shown) [compound 130] | 400 | 5 |  | 
O=C(NC1C2CC3CC(C2)CC1C3)c1nn(-c2ccc(Cl)cc2Cl)c2c1CCCC2 (stereo not shown) [compound 131] | 30 | 10 |  | 
CC(NC(=O)c1nn(C2CCCCC2)c2c1CC(C(=O)O)CC2)C12CC3CC(CC(C3)C1)C2 (stereo not shown) [compound 133] | 12000 | 1340 |  | 
O=C(NCC12CC3CC(CC(C3)C1)C2)c1nn(Cc2ccccc2)c2c1CCCC2 [compound 135] | 670 | 20 |  | 
O=C(NC1C2CC3CC(C2)CC1C3)c1nn(Cc2ccccc2)c2c1CCCC2 (stereo not shown) [compound 136] | 0.8 | 0.5 |  | 
CCOC(=O)C1CCc2c(c(C(=O)NC3C4CCC(C4)C3C(=O)OCC)nn2C2CCCCC2)C1 (stereo not shown) [compound 137] | 3950 | 1550 |  | 
O=C(NC12CC3CC(CC(C3)C1)C2)c1nn(-c2ccc(Cl)cc2Cl)c2c1CCCC2 [compound 139] | 160 | 300 |  | 
O=C(NC12CC3CC(CC(C3)C1)C2)c1c2c(nn1-c1ccc(Cl)cc1Cl)CCCC2 [compound 140] | 890 | 3400 |  | 
O=C(NCC12CC3CC(CC(C3)C1)C2)c1nn(-c2ccc(Cl)cc2Cl)c2c1CCCC2 [compound 141] | 300 | 140 |  | 
O=C(NCC12CC3CC(CC(C3)C1)C2)c1c2c(nn1-c1ccc(Cl)cc1Cl)CCCC2 [compound 142] | 600 | 400 |  | 

SMILES | IC50 [1] [nM] | IC50 [2, 3] [nM] | IC50 ([1]; human CB1 receptor, SK-N-MC cell membranes, radioligand CP-55,940 0.2 nM, read-out: Cannabinoid CB1 Receptor Binding IC50) [nM] | IC50 ([2]; human CB2 receptor, read-out: Cannabinoid CB2 Receptor Binding IC50) [nM]
O=C(NCC12CC3CC(CC(C3)C1)C2)c1nn(-c2ccc(F)cc2)c2c1CCCC2c1ccccc1 (stereo not shown) [compound 145] | 950 | 1100 |  | 
CCOC(=O)C1CCc2c(c(C(=O)NC(C)C34CC5CC(CC(C5)C3)C4)nn2Cc2ccccc2)C1 (stereo not shown) [compound 148] | 13 | 30 |  | 
O=C(NC12CC3CC(CC(C3)C1)C2)c1nn(-c2ccc(F)cc2)c2c1CCCC2CCc1ccccc1 (stereo not shown) [compound 150] | 130 | 40 |  | 
O=C(NCC12CC3CC(CC(C3)C1)C2)c1nn(-c2ccc(F)cc2)c2c1CCCC2CCc1ccccc1 (stereo not shown) [compound 152] | 340 | 200 |  | 
CC(NC(=O)c1nn(-c2ccc(F)cc2)c2c1CCCC2CCc1ccccc1)C12CC3CC(CC(C3)C1)C2 (stereo not shown) [compound 153] | 1390 | 60 |  | 
CCOC(=O)C1CCCc2c1c(C(=O)NC1C3CC4CC(C3)CC1C4)nn2Cc1ccccc1 (stereo not shown) [compound 158] | 13 | 9 |  | 
CCOC(=O)C1CCCc2c1c(C(=O)NCC13CC4CC(CC(C4)C1)C3)nn2Cc1ccccc1 (stereo not shown) [compound 159] | 740 | 130 |  | 
COC1CCCc2c(C(=O)NC(C)C34CC5CC(CC(C5)C3)C4)nn(C3CCCCC3)c21 (stereo not shown) [compound 161] | 5230 | 775 |  | 
COC1CCCc2c(C(=O)NC3C4CC5CC(C4)CC3C5)nn(C3CCCCC3)c21 (stereo not shown) [compound 162] |  |  | 635 | 110
CC(NC(=O)c1nn(C2CCCCC2)c2c1CCCC2O)C12CC3CC(CC(C3)C1)C2 (stereo not shown) [compound 163] | 4770 | 210 |  | 
CCOC(=O)N1CCC(NC(=O)c2nn(Cc3ccccc3)c3c2CCCC3)CC1 [compound 171] | 640 | 300 |  | 
O=C(NCc1cccnc1)c1nn(C2CCCCC2)c2c1CCCC2 [compound 173] | 444 | 526 |  | 
O=C(CNC(=O)c1nn(C2CCCCC2)c2c1CCCC2)c1ccc(Br)cc1 [compound 177] | 10500 | 2400 |  | 
O=C(Nc1nn(C2CCCCC2)c2c1CCCC2)C12CC3CC(CC(C3)C1)C2 [compound 179] | 7300 | 700 |  | 
O=C(Nc1nn(C2CCCCC2)c2c1CCCC2)C1CCCCC1 [compound 180] | 700 | 1700 |  | 
O=C(Nc1nn(C2CCCCC2)c2c1CCCC2)c1cccc2ccccc12 [compound 181] | 300 | 1600 |  | 
O=C(NC1CCCc2ccccc21)c1nn(C2CCCCC2)c2c1CCCC2 (stereo not shown) [compound 183] | 50 | 6.9 |  | 
O=C(NCC(O)C1CCCCC1)c1nn(C2CCCCC2)c2c1CCCC2 (stereo not shown) [compound 185] | 900 | 120 |  | 
O=C(NCC(=O)C1CCCCC1)c1nn(C2CCCCC2)c2c1CCCC2 [compound 187] | 3690 | 1600 |  | 
O=C(NCC1CCCCC1)c1nn(Cc2ccccc2)c2c1CCCC2 [compound 189] | 10 | 10 |  | 
CCOC(=O)C1CCc2nn(C3CCCCC3)c(C(=O)NC(C)C34CC5CC(CC(C5)C3)C4)c2C1 (stereo not shown) [compound 190] | 1620 | 4500 |  | 

SMILES | IC50 [1] [nM] | IC50 [2, 3] [nM] | IC50 ([1]; human CB1 receptor, SK-N-MC cell membranes, radioligand CP-55,940 0.2 nM, read-out: Cannabinoid CB1 Receptor Binding IC50) [nM] | IC50 ([2]; human CB2 receptor, read-out: Cannabinoid CB2 Receptor Binding IC50) [nM]
CCC1CCCc2c(C(=O)NC3C4(C)CCC(C4)C3(C)C)nn(-c3ccc(F)cc3)c21 (stereo not shown) [compound 192] | 60 | 2 |  | 
CC(NC(=O)c1nn(C2CCCCC2)c2c1CCCC2)C1CCCC1 (stereo not shown) [compound 193] | 120 | 5 |  | 
C[C@H](NC(=O)c1nn(C2CCCCC2)c2c1CCCC2)c1ccccc1 [compound 196] | 125 | 120 |  | 
C[C@@H](NC(=O)c1nn(C2CCCCC2)c2c1CCCC2)c1ccccc1 [compound 197] | 980 | 800 |  | 
C[C@@H](NC(=O)c1nn(Cc2ccccc2)c2c1CCCC2)C1CCCCC1 [compound 198] | 100 | 5.7 |  | 
C[C@@H](NC(=O)c1nn(Cc2ccccc2)c2c1CCCC2)c1ccccc1 [compound 199] | 19 | 10 |  | 
C[C@H](NC(=O)c1nn(Cc2ccccc2)c2c1CCCC2)c1ccccc1 [compound 200] | 8 | 1 |  | 
C[C@H](NC(=O)c1nn(Cc2ccccc2)c2c1CCCC2)C1CCCCC1 [compound 201] | 1.7 | 2 |  | 
CC12CCC(C1)C(C)(C)[C@H]2NC(=O)c1nn(-c2ccc(F)cc2)c2c1CCCC2 (stereo partly shown) [compound 202] | 115 | 4.5 |  | 
CCN(C(=O)c1nn(C2CCCCC2)c2c1CCCC2)[C@H](C)C1CCCCC1 [compound 203] | 590 | 240 |  | 
CC[C@@H](NC(=O)c1nn(C2CCCCC2)c2c1CCCC2)c1ccccc1 [compound 204] | 800 | 10 |  | 
CC12CCC(C1)C(C)(C)C2NC(=O)Nc1nn(C2CCCCC2)c2c1CCCC2 (stereo not shown) [compound 205] | 1580 | 70 |  | 
CCOC(=O)[C@@H]1C2C=CC(C2)[C@@H]1NC(=O)c1nn(Cc2ccccc2)c2c1CCCC2 (stereo partly shown) [compound 206] | 97 | 14.1 |  | 
CCOC(=O)[C@H]1CCc2c(c(C(=O)NC3C4CC5CC(C4)CC3C5)nn2Cc2ccccc2)C1 (stereo partly shown) [compound 210] | 335 | 8 |  | 
C[C@H](NC(=O)c1nn(C2CCCCC2)c2c1CCCC2)C12CC3CC(CC(C3)C1)C2 [compound 213] | 950 | 200 |  | 
C[C@@H]1[C@@H](NC(=O)c2nn(C3CCCCC3)c3c2CCCC3)C[C@H]2C[C@@H]1C2(C)C [compound 216] | 2800 | 70 |  | 
CCOC(=O)C1CCc2nn(C3CCCCC3)c(C(=O)NC3C4CC5CC(C4)CC3C5)c2C1 (stereo not shown) [compound 221] | 3290 | 460 |  | 
CC(NC(=O)c1nn(C2CCCCC2)c2c1CC(C(N)=O)CC2)C12CC3CC(CC(C3)C1)C2 (stereo not shown) [compound 224] | 1500 | 1200 |  | 
CCOC(=O)C1CCc2nn(Cc3ccccc3)c(C(=O)NC34CC5CC(CC3C5)C4)c2C1 (stereo not shown) [compound 227] | 2770 | 1150 |  | 
CCOC(=O)C1CCc2c(C(=O)NC3C4CC5CC(C4)CC3C5)nn(Cc3ccccc3)c2C1 (stereo not shown) [compound 230] | 10 | 1 |  | 
